Among the data in patent US9382197B2, “Substituted hydroxamic acids and uses thereof” (Millennium Pharmaceuticals, Inc., priority 2010, dated 2016) are IC50 values, retold here.

Each structure is given as a SMILES string. Bounds are passed on as bounds.

One test addresses T1, purified human HDAC6 (Homo sapiens, UniProt Q9UBN7).
T1 construct: purchased BPS Bioscience 5006
T1 sequence (Q9UBN7 1-1215): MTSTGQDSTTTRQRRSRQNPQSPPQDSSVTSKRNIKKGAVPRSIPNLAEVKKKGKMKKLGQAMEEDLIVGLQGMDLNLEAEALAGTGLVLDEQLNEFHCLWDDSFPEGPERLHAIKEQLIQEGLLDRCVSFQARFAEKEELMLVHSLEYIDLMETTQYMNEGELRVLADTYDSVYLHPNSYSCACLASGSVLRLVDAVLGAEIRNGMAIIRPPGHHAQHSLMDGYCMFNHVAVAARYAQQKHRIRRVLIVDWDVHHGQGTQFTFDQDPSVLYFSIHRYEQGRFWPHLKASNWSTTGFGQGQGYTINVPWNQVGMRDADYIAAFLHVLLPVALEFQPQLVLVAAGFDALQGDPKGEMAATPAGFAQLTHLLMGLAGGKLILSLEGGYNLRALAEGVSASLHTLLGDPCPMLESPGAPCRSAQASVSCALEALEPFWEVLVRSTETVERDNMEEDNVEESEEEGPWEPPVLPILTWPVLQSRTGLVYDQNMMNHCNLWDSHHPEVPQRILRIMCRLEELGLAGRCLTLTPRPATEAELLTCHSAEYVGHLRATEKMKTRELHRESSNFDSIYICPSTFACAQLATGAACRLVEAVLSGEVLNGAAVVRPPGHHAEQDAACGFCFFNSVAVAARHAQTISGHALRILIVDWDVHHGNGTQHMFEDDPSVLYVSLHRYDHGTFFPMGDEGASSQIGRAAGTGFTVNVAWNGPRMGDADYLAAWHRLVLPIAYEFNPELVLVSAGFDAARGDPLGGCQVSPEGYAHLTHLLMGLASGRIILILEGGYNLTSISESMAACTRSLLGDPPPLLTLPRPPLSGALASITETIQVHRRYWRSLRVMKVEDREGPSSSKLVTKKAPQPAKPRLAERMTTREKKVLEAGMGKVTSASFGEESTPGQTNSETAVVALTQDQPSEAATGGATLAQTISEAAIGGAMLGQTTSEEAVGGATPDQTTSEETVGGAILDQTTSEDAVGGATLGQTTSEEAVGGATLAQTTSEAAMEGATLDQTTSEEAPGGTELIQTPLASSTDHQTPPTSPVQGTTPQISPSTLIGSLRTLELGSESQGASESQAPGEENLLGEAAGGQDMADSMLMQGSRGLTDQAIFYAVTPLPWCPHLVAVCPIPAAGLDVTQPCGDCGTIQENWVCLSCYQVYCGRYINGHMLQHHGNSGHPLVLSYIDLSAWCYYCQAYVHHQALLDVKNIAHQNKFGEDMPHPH
Briefly: HDAC6 Enzyme Assay. The format is biochemical. The settings on record: bin: greater than 500 nM and less than 1 μM (lower bound in nM, upper bound in μM). The method in brief:
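Deacetylated product quantified after trypsin digestion as released AMC (340/460 nm), following a 1 h, 30 °C reaction of human HDAC6 with Ac-RGK(Ac)-AMC peptide, quenched by trichostatin A. IC50 derived from DMSO-normalized curves.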
`CC(NC(=O)c1cscn1)c1cccc(C(=O)NO)c1` (centres unmarked) [Compound I-179, N-(1-{3-[(hydroxyamino)carbonyl]phenyl}ethyl)-1,3-thiazole-4-carboxamide] yielded a half-maximal inhibitory concentration (IC50) of 500 to 1000 nM.
Consider `Cc1cc(C(=O)NC(C)c2cccc(C(=O)NO)c2)c(C)[nH]1` (centres unmarked) [Compound I-181, N-(1-{3-[(hydroxyamino)carbonyl]phenyl}ethyl)-2,5-dimethyl-1H-pyrrole-3-carboxamide], for which the IC50 was in the range of 500 to 1000 nM.
Still for that read-out and setting: the same measure for `CC(NC(=O)C1(c2ccc(Cl)cc2)CC1)c1cccc(C(=O)NO)c1` (centres unmarked) [Compound I-183, 3-[1-({[1-(4-chlorophenyl)cyclopropyl]carbonyl}amino)ethyl]-N-hydroxybenzamide]: 500 to 1000 nM.
The same measure, in the same setting: the same measure for `CC(C)C(NC(=O)Cc1cccc(C(F)(F)F)c1)c1ccc(C(=O)NO)cc1` (centres unmarked) [Compound I-195, N-hydroxy-4-[2-methyl-1-({[3-(trifluoromethyl)phenyl]acetyl}amino)propyl]benzamide]: 500 to 1000 nM; for `CC(NC(=O)c1cccc(S(C)(=O)=O)c1)c1cccc(C(=O)NO)c1` (centres unmarked) [Compound I-199, N-(1-{3-[(hydroxyamino)carbonyl]phenyl}ethyl)-3-(methylsulfonyl)benzamide]: 500 to 1000 nM; for `CC(C)C(NC(=O)C(c1ccccc1)c1ccccc1)c1ccc(C(=O)NO)cc1` (centres unmarked) [Compound I-204, 4-{1-[(diphenylacetyl)amino]-2-methylpropyl}-N-hydroxybenzamide]: 500 to 1000 nM.

Staying with this test, now noted: bin: greater than 1 μM.
With `C[C@@H](NC(=O)C(C)(C)C)c1cccc(C(=O)NO)c1` [Compound I-177, 3-{(1R)-1-[(2,2-dimethylpropanoyl)amino]ethyl}-N-hydroxybenzamide], the IC50 was above 1000 nM.
On the same count and under the same terms, as for `CC(NC(=O)c1cc2oc(-c3ccccc3)cc2n1C)c1cccc(C(=O)NO)c1` (centres unmarked) [Compound I-180, N-(1-{3-[(hydroxyamino)carbonyl]phenyl}ethyl)-4-methyl-2-phenyl-4H-furo[3,2-b]pyrrole-5-carboxamide], the figure is above 1000 nM; as for `CC(C)[C@@H](NS(=O)(=O)c1ccc(C(F)(F)F)cc1)c1ccc(C(=O)NO)cc1` [Compound I-189, N-hydroxy-4-[(1R)-2-methyl-1-({[4-(trifluoromethyl)phenyl]sulfonyl}amino)propyl]benzamide], above 1000 nM.
Compound `Cc1noc(C)c1C(=O)NC(c1ccc(C(=O)NO)cc1)C(C)(C)C` (centres unmarked) [Compound I-200, N-(1-{4-[(hydroxyamino)carbonyl]phenyl}-2,2-dimethylpropyl)-3,5-dimethylisoxazole-4-carboxamide] returned an IC50 above 1000 nM.

Staying with this test, now noted: purified human HDAC6, substrate Ac-Arg-Gly-Lys(Ac)-AMC, 1 hour at 30° C.; reported as bins.
`CC(C)C(NC(=O)c1cc(C(F)(F)F)cc(C(F)(F)F)c1)c1ccc(C(=O)NO)cc1` (centres unmarked) [Compound I-173, N-(1-{4-[(hydroxyamino)carbonyl]phenyl}-2-methylpropyl)-3,5-bis(trifluoromethyl)benzamide]: the IC50 fell in the range of 100 to 500 nM.
Still for that read-out and setting: the same measure for `Cc1[nH]c2ccccc2c1CC(=O)NC(c1ccc(C(=O)NO)cc1)C(C)C` (centres unmarked) [Compound I-174, N-hydroxy-4-(2-methyl-1-{[(2-methyl-1H-indol-3-yl)acetyl]amino}propyl)benzamide]: 100 to 500 nM; for `Cc1cccc(NC(=O)NC(C)c2ccc(C(=O)NO)cc2)c1C` (centres unmarked) [Compound I-175, 4-[1-({[(2,3-dimethylphenyl)amino]carbonyl}amino)ethyl]-N-hydroxybenzamide]: below 100 nM; for `Cc1cc(C)c(S(=O)(=O)NC(C)c2ccc(C(=O)NO)cc2)c(C)c1` (centres unmarked) [Compound I-176, N-hydroxy-4-{1-[(mesitylsulfonyl)amino]ethyl}benzamide]: 100 to 500 nM.
Still for that read-out and setting: the same measure for `CC(NS(=O)(=O)c1ccc(-c2cnco2)cc1)c1ccc(C(=O)NO)cc1` (centres unmarked) [Compound I-178, N-hydroxy-4-[1-({[4-(1,3-oxazol-5-yl)phenyl]sulfonyl}amino)ethyl]benzamide]: 100 to 500 nM.
Still for that read-out and setting: the same measure for `Cc1c(C(=O)NC(c2ccc(C(=O)NO)cc2)C(C)(C)C)cnn1-c1ccccc1` (centres unmarked) [Compound I-182, N-(1-{4-[(hydroxyamino)carbonyl]phenyl}-2,2-dimethylpropyl)-5-methyl-1-phenyl-1H-pyrazole-4-carboxamide]: 100 to 500 nM; for `C[C@@H](NC(=O)c1cc2ccccc2s1)c1ccc(C(=O)NO)cc1` [Compound I-184, N-((1R)-1-{4-[(hydroxyamino)carbonyl]phenyl}ethyl)-1-benzothiophene-2-carboxamide]: below 100 nM.
In turn, `CC(NC(=O)c1ccc(-n2cccn2)cc1)c1ccc(C(=O)NO)cc1` (centres unmarked) [Compound I-185, N-(1-{4-[(hydroxyamino)carbonyl]phenyl}ethyl)-4-(1H-pyrazol-1-yl)benzamide] gave an IC50 below 100 nM.
Same read-out and setting: as for `CC(C)c1cc(C(=O)NC(C)c2ccc(C(=O)NO)cc2)n(C)n1` (centres unmarked) [Compound I-186, N-(1-{4-[(hydroxyamino)carbonyl]phenyl}ethyl)-3-isopropyl-1-methyl-1H-pyrazole-5-carboxamide], the figure is below 100 nM; as for `Cc1c(C(=O)N[C@@H](c2ccc(C(=O)NO)cc2)C(C)C)oc2ccccc12` [Compound I-187, N-((1R)-1-{4-[(hydroxyamino)carbonyl]phenyl}-2-methylpropyl)-3-methyl-1-benzofuran-2-carboxamide], below 100 nM.
The same measure, in the same setting: as for `CC(C)C(NC(=O)c1cnc2ccccc2n1)c1ccc(C(=O)NO)cc1` (centres unmarked) [Compound I-190, N-(1-{4-[(hydroxyamino)carbonyl]phenyl}-2-methylpropyl)quinoxaline-2-carboxamide], the figure is below 100 nM.
Same read-out and setting: as for `CC(C)C(NC(=O)c1nc2ccccc2s1)c1ccc(C(=O)NO)cc1` (centres unmarked) [Compound I-191, N-(1-{4-[(hydroxyamino)carbonyl]phenyl}-2-methylpropyl)-1,3-benzothiazole-2-carboxamide], the figure is below 100 nM; as for `CC(C)C(NC(=O)c1ccc(C(C)(C)C)cc1)c1ccc(C(=O)NO)cc1` (centres unmarked) [Compound I-192, 4-tert-butyl-N-(1-{4-[(hydroxyamino)carbonyl]phenyl}-2-methylpropyl)benzamide], 100 to 500 nM.
As for `COc1ccc(C(=O)N[C@H](C)c2cccc(C(=O)NO)c2)cc1` [Compound I-193, N-hydroxy-3-{(1R)-1-[(4-methoxybenzoyl)amino]ethyl}benzamide], the IC50 lay within 100 to 500 nM.
Same read-out and setting: as for `CC(C)C(NC(=O)c1ccc2occc2c1)c1ccc(C(=O)NO)cc1` (centres unmarked) [Compound I-194, N-(1-{4-[(hydroxyamino)carbonyl]phenyl}-2-methylpropyl)-1-benzofuran-5-carboxamide], the figure is below 100 nM.
The same measure, in the same setting: the same measure for `CC(NC(=O)NC(C)c1ccc(C(=O)NO)cc1)c1ccccc1` (centres unmarked) [Compound I-196, N-hydroxy-4-[1-({[(1-phenylethyl)amino]carbonyl}amino)ethyl]benzamide]: 100 to 500 nM; for `C[C@@H](NC(=O)c1cc2ccccc2o1)c1cccc(C(=O)NO)c1` [Compound I-201, N-((1R)-1-{3-[(hydroxyamino)carbonyl]phenyl}ethyl)-1-benzofuran-2-carboxamide]: 100 to 500 nM; for `COc1ccc(C(=O)NC(C)c2cccc(C(=O)NO)c2)cc1` (centres unmarked) [Compound I-202, N-hydroxy-3-{1-[(4-methoxybenzoyl)amino]ethyl}benzamide]: 100 to 500 nM.
Same read-out and setting: as for `CC(C)C(NC(=O)c1cnccn1)c1ccc(C(=O)NO)cc1` (centres unmarked) [Compound I-203, N-(1-{4-[(hydroxyamino)carbonyl]phenyl}-2-methylpropyl)pyrazine-2-carboxamide], the figure is 100 to 500 nM; as for `CC(C)C(NC(=O)Cc1csc2ccc(Cl)cc12)c1ccc(C(=O)NO)cc1` (centres unmarked) [Compound I-206, 4-(1-{[(5-chloro-1-benzothien-3-yl)acetyl]amino}-2-methylpropyl)-N-hydroxybenzamide], 100 to 500 nM.
In turn, `CC(NC(=O)c1cc2ccccc2o1)c1ccc(C(=O)NO)cc1` (centres unmarked) [Compound I-207, N-(1-{4-[(hydroxyamino)carbonyl]phenyl}ethyl)-1-benzofuran-2-carboxamide] came in with an IC50 below 100 nM.
Same read-out and setting: as for `CC(NC(=O)C1CCCCC1)c1ccc(C(=O)NO)cc1` (centres unmarked) [Compound I-208, 4-{1-[(cyclohexylcarbonyl)amino]ethyl}-N-hydroxybenzamide], the figure is below 100 nM.
